Source: patent US10138260B2, “Compounds of phosphinanes and azaphosphinanes, a process for their preparation and pharmaceutical compositions containing them” (LES LABORATOIRES SERVIER, priority 2016, dated 2018)
Counter-ions that a name gives are not always drawn.

Target: T1, TAFIa (Homo sapiens, UniProt Q96IY4)
T1 sequence (Q96IY4 115-423): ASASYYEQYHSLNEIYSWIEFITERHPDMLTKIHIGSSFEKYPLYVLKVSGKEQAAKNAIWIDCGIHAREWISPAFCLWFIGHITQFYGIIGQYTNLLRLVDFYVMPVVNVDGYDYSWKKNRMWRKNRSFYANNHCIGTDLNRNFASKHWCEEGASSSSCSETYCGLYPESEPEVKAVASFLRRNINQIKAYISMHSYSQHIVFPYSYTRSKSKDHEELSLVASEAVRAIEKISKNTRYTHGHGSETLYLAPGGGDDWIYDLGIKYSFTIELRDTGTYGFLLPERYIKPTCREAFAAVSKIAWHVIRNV
Assay: Inhibition of TAFIa (hippuryl-Arg test)
Format: biochemical
Conditions: TAFIa 2 nM, hippuryl-arginine 5 mM, 45 minutes, relative to control containing the carrier; for inhibition at 0.01 µM: compound at 10 nM; for inhibition at 0.02 µM: compound at 20 nM
How it was run: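 TAFI (4 nM) activated 20 min by thrombin/thrombomodulin with 10 mM calcium, stopped with PPACK; TAFIa (2 nM) then incubated 45 min with compound and 5 mM hippuryl-arginine in Hepes buffer, pH 7.4, 28 °C. Absorbance at 405 nm, blank-corrected; % inhibition versus carrier at 10 and 20 nM.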

| inhibition at 0.01 µM [%] | inhibition at 0.02 µM [%] | Compound |
| --- | --- | --- |
| 81 | 89 | COc1ccc(-c2cc(O)ccc2CN2CCP(=O)(O)[C@](CCCCN)(C(=O)O)C2)cc1OC [Example 229, (3S)-3-(4-AMINOBUTYL)-1-[[2-(3,4-DIMETHOXYPHENYL)-4-HYDROXYPHENYL]-METHYL]-4-HYDROXY-4-OXO-1,4-AZAPHOSPHINANE-3-CARBOXYLIC ACID] |
| 80 | 89 | Cn1nc(C(F)(F)F)cc1-c1ccccc1CN1CCP(=O)(O)[C@](CCCCN)(C(=O)O)C1 [Example 232, (3S)-3-(4-AMINOBUTYL)-4-HYDROXY-1-[[2-[2-METHYL-5-(TRIFLUOROMETHYL)-PYRAZOL-3-YL]PHENYL]METHYL]-4-OXO-1,4-AZAPHOSPHINANE-3-CARBOXYLIC ACID] |
| 68 | 79 | NCCCC[C@@]1(C(=O)O)CN(Cc2ccc(F)cc2-c2cncnc2)CCP1(=O)O [Example 234, (3S)-3-(4-AMINOBUTYL)-1-[(4-FLUORO-2-PYRIMIDIN-5-YLPHENYL)METHYL]-4-HYDROXY-4-OXO-1,4-AZAPHOSPHINANE-3-CARBOXYLIC ACID] |
| 60 | 77 | Cn1nccc1-c1ccccc1CN1CCP(=O)(O)[C@](CCCCN)(C(=O)O)C1 [Example 235, (3S)-3-(4-AMINOBUTYL)-4-HYDROXY-1-[[2-(2-METHYLPYRAZOL-3-YL)PHENYL]METHYL]-4-OXO-1,4-AZAPHOSPHINANE-3-CARBOXYLIC ACID] |
| 81 | 91 | Cn1nccc1-c1cc(F)ccc1CN1CCP(=O)(O)[C@](CCCCN)(C(=O)O)C1 [Example 236, (3S)-3-(4-AMINOBUTYL)-1-[[4-FLUORO-2-(2-METHYLPYRAZOL-3-YL)PHENYL]-METHYL]-4-HYDROXY-4-OXO-1,4-AZAPHOSPHINANE-3-CARBOXYLIC ACID] |
| 77 | 84 | NCCCC[C@@]1(C(=O)O)CN(Cc2ccccc2-c2cnc3ccccn23)CCP1(=O)O [Example 237, (3S)-3-(4-AMINOBUTYL)-4-HYDROXY-1-[(2-IMIDAZO[1,2-A]PYRIDIN-3-YLPHENYL)METHYL]-4-OXO-1,4-AZAPHOSPHINANE-3-CARBOXYLIC ACID] |
| 70 | 87 | NCCCC[C@@]1(C(=O)O)CN(Cc2ccc(F)cc2-c2cccc(O)c2)CCP1(=O)O [Example 238, (3S)-3-(4-AMINOBUTYL)-1-[[4-FLUORO-2-(3-HYDROXYPHENYL)PHENYL]-METHYL]-4-HYDROXY-4-OXO-1,4-AZAPHOSPHINANE-3-CARBOXYLIC ACID] |
| 85 | 96 | COc1ccc(-c2cc(F)ccc2CN2CCP(=O)(O)[C@](CCCCN)(C(=O)O)C2)cn1 [Example 239, (3S)-3-(4-AMINOBUTYL)-1-[[4-FLUORO-2-(6-METHOXYPYRIDIN-3-YL)PHENYL]-METHYL]-4-HYDROXY-4-OXO-1,4-AZAPHOSPHINANE-3-CARBOXYLIC ACID] |
| 66 | 80 | NCCCC[C@@]1(C(=O)O)CN(Cc2ccccc2-c2ccc(O)nc2)CCP1(=O)O [Example 240, (3S)-3-(4-AMINOBUTYL)-4-HYDROXY-1-[[2-(6-HYDROXYPYRIDIN-3-YL)PHENYL]METHYL]-4-OXO-1,4-AZAPHOSPHINANE-3-CARBOXYLIC ACID] |
| 77 | 91 | NCCCC[C@@]1(C(=O)O)CN(Cc2ccc(F)cc2-c2ccc(O)nc2)CCP1(=O)O [Example 241, (3S)-3-(4-AMINOBUTYL)-1-[[4-FLUORO-2-(6-HYDROXYPYRIDIN-3-YL)PHENYL]-METHYL]-4-HYDROXY-4-OXO-1,4-AZAPHOSPHINANE-3-CARBOXYLIC ACID] |
| 75 | 88 | COc1ccc(-c2cc(O)ccc2CN2CCP(=O)(O)[C@](CCCCN)(C(=O)O)C2)cn1 [Example 242, (3S)-3-(4-AMINOBUTYL)-4-HYDROXY-1-[[4-HYDROXY-2-(6-METHOXYPYRIDIN-3-YL)PHENYL]METHYL]-4-OXO-1,4-AZAPHOSPHINANE-3-CARBOXYLIC ACID] |
| 49 | 68 | COc1cccc(-c2cc(F)ccc2CN2CCP(=O)(O)[C@](CCCCN)(C(=O)O)C2)n1 [Example 244, (3S)-3-(4-AMINOBUTYL)-1-[[4-FLUORO-2-(6-METHOXYPYRIDIN-2-YL)PHENYL]-METHYL]-4-HYDROXY-4-OXO-1,4-AZAPHOSPHINANE-3-CARBOXYLIC ACID] |
| 38 | 52 | NCCCC[C@@]1(C(=O)O)CN(Cc2ccc(F)cc2-c2nccs2)CCP1(=O)O [Example 245, (3S)-3-(4-AMINOBUTYL)-1-[[4-FLUORO-2-(1,3-THIAZOL-2-YL)PHENYL]METHYL]-4-HYDROXY-4-OXO-1,4-AZAPHOSPHINANE-3-CARBOXYLIC ACID] |
| 72 | 86 | Cn1cncc1-c1cc(O)ccc1CN1CCP(=O)(O)[C@](CCCCN)(C(=O)O)C1 [Example 246, (3S)-3-(4-Aminobutyl)-4-hydroxy-1-[[4-hydroxy-2-(3-methylimidazol-4-yl)phenyl]methyl]-4-oxo-1,4-azaphosphinane-3-carboxylic acid, hydrobromide] |
| 85 | 89 | Cn1nccc1-c1cc(O)ccc1CN1CCP(=O)(O)[C@](CCCCN)(C(=O)O)C1 [Example 247, (3S)-3-(4-AMINOBUTYL)-4-HYDROXY-1-[[4-HYDROXY-2-(2-METHYLPYRAZOL-3-YL)PHENYL]METHYL]-4-OXO-1,4-AZAPHOSPHINANE-3-CARBOXYLIC ACID] |
| 87 | 95 | COc1ccc(-c2ccccc2CN2CCP(=O)(O)[C@](CCCCN)(C(=O)O)C2)cc1OC [Example 248, (3S)-3-(4-AMINOBUTYL)-1-[[2-(3,4-DIMETHOXYPHENYL)PHENYL]METHYL]-4-HYDROXY-4-OXO-1,4-AZAPHOSPHINANE-3-CARBOXYLIC ACID] |
| 88 | 94 | Cc1ncc(-c2cc(O)ccc2CN2CCP(=O)(O)[C@](CCCCN)(C(=O)O)C2)n1C [Example 249, (3S)-3-(4-AMINOBUTYL)-1-[[2-(2,3-DIMETHYLIMIDAZOL-4-YL)-4-HYDROXYPHENYL]METHYL]-4-HYDROXY-4-OXO-1,4-AZAPHOSPHINANE-3-CARBOXYLIC ACID] |
| 88 | 97 | Cc1ncc(-c2ccccc2CN2CCP(=O)(O)[C@](CCCCN)(C(=O)O)C2)n1C [Example 250, (3S)-3-(4-AMINOBUTYL)-1-[[2-(2,3-DIMETHYLIMIDAZOL-4-YL)PHENYL]-METHYL]-4-HYDROXY-4-OXO-1,4-AZAPHOSPHINANE-3-CARBOXYLIC ACID] |
| 70 | 90 | NCCCC[C@@]1(C(=O)O)CN(Cc2ccc(F)cc2-c2ccc(F)c(O)c2)CCP1(=O)O [Example 251, (3S)-3-(4-AMINOBUTYL)-1-[[4-FLUORO-2-(4-FLUORO-3-HYDROXYPHENYL)-PHENYL]METHYL]-4-HYDROXY-4-OXO-1,4-AZAPHOSPHINANE-3-CARBOXYLIC ACID] |
| 76 | 90 | NCCCC[C@@]1(C(=O)O)CN(Cc2ccccc2-c2ccncc2)CCP1(=O)O [Example 252, (3S)-3-(4-AMINOBUTYL)-4-HYDROXY-4-OXO-1-[(2-PYRIDIN-4-YLPHENYL)-METHYL]-1,4-AZAPHOSPHINANE-3-CARBOXYLIC ACID] |
